Experimental data from patent US20200024299A1, “CRYSTALLINE FORMS OF A BILE ACID DERIVATIVE” (Intercept Pharmaceuticals, Inc., priority 2016, published 2020).
Entries after “also recorded” stand apart in the source; their conditions may differ.

Assays:
Type in all cases: physicochemical
[1] = Aqueous solubility at 25° C.; settings: water
[2] = Storage stability at controlled temperature / relative humidity
[3] = Gravimetric Vapor Sorption (GVS), hygroscopicity
Protocol: Sorption isotherms were obtained using a SMS DVS Intrinsic moisture sorption analyzer, controlled by DVS Intrinsic Control software v1.0.1.2 (or v 1.0.1.3). The sample temperature was maintained at 25° C. by the instrument controls. The humidity was controlled by mixing streams of dry and wet nitrogen, with a total flow rate of 200 mL/min. The relative humidity was measured by a calibrated Rotronic probe (dynamic range of 1.0-100% RH), located near the sample. The weight change, (mass relaxation) of the sample as a function of % RH was constantly monitored by the microbalance (accuracy ±0.005 mg).
Typically, 5-20 mg of sample was placed in a tared mesh stainless steel basket under ambient conditions. The sample was loaded and unloaded at 40% RH and 25° C. (typical room conditions). A moisture sorption isotherm was performed as outlined below (2 scans giving 1 complete cycle). The standard isotherm was performed at 25° C. at 10% RH intervals over a 0-90% RH range. Data analysis was carried out using Microsoft Excel using DVS Analysis Suite v6.2 (or 6.1 or 6.0).

[4] = Variable Temperature XRPD (physical stability on heating); settings: upon heating
Protocol: X-Ray Powder Diffraction patterns were collected on a Bruker AXS C2 GADDS diffractometer using Cu Kα radiation (40 kV, 40 mA), automated XYZ stage, laser video microscope for auto-sample positioning and a HiStar 2-dimensional area detector. X-ray optics consists of a single Gobel multilayer mirror coupled with a pinhole collimator of 0.3 mm. A weekly performance check is carried out using a certified standard NIST 1976 Corundum (flat plate).
The beam divergence, i.e., the effective size of the X-ray beam on the sample, was approximately 4 mm. A 0-0 (theta-theta) continuous scan mode was employed with a sample—detector distance of 20 cm which gives an effective 20 (theta) range of 3.2°-29.7°. Typically, the sample would be exposed to the X-ray beam for 120 seconds. The software used for data collection was GADDS for XP/2000 4.1.43 and the data were analyzed and presented using Diffrac Plus EVA v15.0.0.0.
Samples run under non-ambient conditions were mounted on a silicon wafer with heat-conducting compound. The sample was then heated to the appropriate temperature at 20° C./min and subsequently held isothermally for 1 minute before data collection was initiated.

[5] = listed as Amorphous Form of Compound 1-Na

CC[C@H]1[C@@H](O)C2C3CC[C@H]([C@H](C)CCOS(=O)(=O)[O-])[C@@]3(C)CCC2[C@@]2(C)CC[C@@H](O)C[C@@H]12.[Na+] (stereo partly drawn) [Amorphous Compound 1-Na, 6α-ethyl-3α,7α,23-trihydroxy-24-nor-5β-cholan-23-sulphate sodium]
Aqueous Solubility (25° C.) [1]: >200 mg/mL | solubility [1]: > 200 mg/mL | Storage @ 25° C./60% RH ([2]; 25° C./60% RH): Unchanged for at least 1 month | Storage @ 25° C./60% RH ([2]; 25° C./60% RH, listed as Amorphous Form of Compound 1-Na): physically stable for at least 1 month | Storage @ 25° C./97% RH [2]: Deliquesced in less than days | Storage @ 25° C./97% RH [2, 5]: deliquescent | Storage @ 40° C./75% RH [2]: Deliquesced in less than 3 days | Storage @ 40° C./75% RH [2, 5]: deliquescent

CC[C@H]1[C@@H](O)C2C3CC[C@H]([C@H](C)CCOS(=O)(=O)[O-])[C@@]3(C)CCC2[C@@]2(C)CC[C@@H](O)C[C@@H]12.[Na+] (stereo partly drawn) [Form A of Compound 1-Na Formed via Suspension] [6α-ethyl-3α,7α,23-trihydroxy-24-nor-5β-cholan-23-sulphate sodium]
Storage @ 25° C./60% RH ([2]; 25° C./60% RH): successful for at least 1 month; also recorded: Unchanged for at least 1 month | Storage @ 25° C./97% RH [2]: Deliquesced in less than 3 days | Storage @ 40° C./75% RH [2]: Deliquesced in less than 3 days

CC[C@H]1[C@@H](O)C2C3CC[C@H]([C@H](C)CCOS(=O)(=O)[O-])[C@@]3(C)CCC2[C@@]2(C)CC[C@@H](O)C[C@@H]12.[Na+] (stereo partly drawn) [6α-ethyl-3α,7α,23-trihydroxy-24-nor-5β-cholan-23-sulphate sodium]
12 days Storage @ 25° C./60% RH ([2]; 12 days, 25° C./60% RH): Unchanged | 12 days Storage @ 40° C./60% RH ([2]; 12 days, 40° C./60% RH): Unchanged | GVS water uptake from 40% to 60% RH ([3]; 40% to 60% RH): 2.6% w/w of water uptake from 40% to 60% RH. | XRPD post GVS ([3]; after GVS): Unchanged | GVS hysteresis (process reversible) ([3]; sorption/desorption): ~1% w/w | GVS total water uptake ([3]; whole GVS cycle): Total of 8% w/w water uptake.

CC[C@H]1[C@@H](O)C2C3CC[C@H]([C@H](C)CCOS(=O)(=O)[O-])[C@@]3(C)CCC2[C@@]2(C)CC[C@@H](O)C[C@@H]12.[Na+] (stereo partly drawn) [Example 5, 6α-ethyl-3α,7α,23-trihydroxy-24-nor-5β-cholan-23-sulphate sodium]
Storage @ 25° C./60% RH ([2]; 25° C./60% RH): stable for at least one month; also recorded: Unchanged for at least 1 month | Storage @ 25° C./97% RH [2]: deliquesced sample after 3 days; also recorded: Deliquesced in three days | Storage @ 40° C./75% RH [2]: deliquesced sample after 3 days; also recorded: Deliquesced in three days | GVS water uptake from 40% to 80% RH ([3]; 25° C., 40% to 80% RH): 4 % w/w | GVS water uptake from 40% to 80% RH (equivalents of water) ([3]; 25° C., 40% to 80% RH): 1.1 eq | GVS water uptake from 80% to 90% RH ([3]; 25° C., 80% to 90% RH): 24 % w/w | GVS water uptake from 80% to 90% RH (equivalents of water) ([3]; 25° C., 80% to 90% RH): 6.6 eq | GVS: state of sample during the analysis ([3]; 25° C., up to 90% RH): the sample deliquesced | Hygroscopic profile from 40% to 80% RH ([3]; 40% to 80% RH): moderate hygroscopic profile | GVS water uptake at RH greater than 80% ([3]; RH greater than 80%): 24% | GVS water uptake at RH greater than 80% (equivalents of water) ([3]; RH greater than 80%): 6.6 eq | Hygroscopic profile at RH greater than 80% ([3]; RH greater than 80%): very hygroscopic profile | VT-XRPD [4]: unchanged upon heating
